Measurements from patent US5665735A, “Unbridged bis-aryl carbinol derivatives compositions and methods of use” (Schering Corporation, priority 1995, dated 1997).
Where two headings read alike, the source gives them in different places.

Assays:
[1] = test system: PAF-induced platelet aggregation; assay: Platelet aggregation assay: inhibition of platelet aggregation induced by PAF (in vitro); type: cell-based; details: Homo sapiens; for inhibition at 0.5 µM: concentration 0.5 μM; for inhibition at 2.5 µM: concentration 2.5 μM; for inhibition at 5 µM: concentration 5 μM; for inhibition at 50 µM: concentration 50 μM; for inhibition at 0.25 µM: concentration 0.25 μM; for inhibition at 0.12 µM: concentration 0.12 μM; for inhibition at 0.125 µM: concentration 0.125 μM; for IC50: read-out: PAF antagonism (in vitro) IC50
Method: A. In Vitro Studies--Platelet Aggregation Assay
Platelet-activating factor (PAF) causes aggregation of platelets by a receptor-mediated mechanism. Therefore, PAF-induced platelet aggregation provides a simple and convenient assay to screen compounds for PAF antagonism.
Blood was centrifuged at 110×g for 15 min. and the supernatant platelet-rich plasma (PRP) carefully transferred into a polypropylene tube. Platelet-poor-plasma (PPP) was prepared by centrifuging PRP at 12,000×g for 2 min. PRP was used within 3 hr. of drawing the blood.
PAF was dissolved in chloroform:methanol (1:1, v/v) at a concentration of 2 mg/mL and stored at -70° C. An aliquot of this solution was transferred to a polypropylene tube and […] under a flow of nitrogen gas. […] The solution was sonicated for 5 min. This stock solution was further diluted to appropriate concentrations in Hepes-saline-BSA buffer. Collagen and adenosine diphosphate (ADP) were purchased as solutions. Test compounds were initially dissolved in dimethyl sulfoxide (DMSO) at a concentration of 50 mM and then further diluted in Hepes-saline-BSA buffer to achieve appropriate concentrations.
When an aggregating agent such as PAF is added to PRP, platelets aggregate. An aggregometer quantifies this aggregation by measuring and comparing light (infra-red) transmission through PPP and PRP. Aggregation assays were performed using a dual-channel aggregometer. PRP (0.45 ml) in aggregometer cuvettes was continually stirred (37° C.). Solutions (50 μL) of test compounds or vehicle were added to the PRP and, after incubation for 2 min., 10-15 μL aliquots of PAF solution were added to achieve a final concentration of 1-5×10^-8 M. In different experiments the aggregatory response was kept within a set limit by varying the concentration of PAF. Incubations were continued until the increase in light transmission reached a maximum (usually 2 min.). This increase in light transmission reflecting platelet aggregation is transmitted to a computer. The computer calculates the slope of transmission change, thus providing the rate of aggregation. Values for inhibition were calculated by comparing rates of aggregation obtained in the absence and the presence of the compound. For each experiment, a standard PAF antagonist such as 8-chloro-6,11-dihydro-11-(1-acetyl-4-piperidylidene)-5H-benzo[5,6]cyclohepta[1,2-b]pyridine was used as a positive control.
Compounds that inhibit PAF-induced aggregation were tested against several other aggregating agents including collagen (0.2 mg/ml) and ADP (2 μM).

PAF-induced bronchospasm = assay: Agonist-induced bronchospasm in guinea pigs, PAF (in vivo, oral); design: species or system guinea pig (male Hartley)
Method: (§1) In Vivo Studies: Agonist-Induced Responses--Spasmogen-Induced Bronchospasm in Guinea Pigs
(§2) Male Hartley guinea pigs (450-550 g) were obtained from Charles River Breeding Laboratories. The animals were fasted overnight and the following day were anesthetized with 0.9 mL/kg i.p. of dilaurethane (containing 0.1 g/mL diallylbarbituric acid, 0.4 g/ml ethylurea and 0.4 g/ml urethane). The left jugular vein was cannulated for the administration of compounds. The trachea was cannulated and the animals were ventilated by a rodent respirator at 55 strokes/min. with a stroke volume of 4 mL. A side arm to the tracheal cannula was connected to a pressure transducer to obtain a continuous measure of inflation pressure. Bronchoconstriction was measured as the percent increase in inflation pressure that peaked within 5 min. after challenge with spasmogen. […] Each animal was challenged with only a single spasmogen. The effect of a compound on the bronchospasm is expressed as a percent inhibition of the increase in inflation pressure compared to the, increase in a control group.

[2] = test system: histamine-induced bronchospasm; assay: Agonist-induced bronchospasm in guinea pigs, histamine (in vivo, oral); design: species or system guinea pig (male Hartley)
Method: as §1, §2

Compound	inhibition at 0.5 µM [1] [%]	inhibition at 5 µM [1] [%]	inhibition at 50 µM [1] [%]	PAF agonist bronchospasm % inhibition (PAF-induced bronchospasm; 3 mg/kg) [%]	inhibition at 0.25 µM [1] [%]	further results
O=C(c1cc[n+]([O-])cc1)N1CCC(C(O)(c2ccc(Cl)cc2)c2cccs2)CC1 (centres unmarked) [Formula 1.0A8]	74	100	89	0	–	inhibition at 1.25 µM ([1]; concentration 1.25 μM): 26%; inhibition at 2.5 µM [1]: 55%
O=C(c1cc[n+]([O-])cc1)N1CCC(=C2c3ccc(Cl)cc3CCc3cccnc32)CC1 [Compound C, reference compound]	–	–	–	–	–	PAF agonist bronchospasm % inhibition (duration) (PAF-induced bronchospasm; 5 mg/kg, time 4 (unit not given)): 37%; PAF agonist bronchospasm % inhibition (duration) (PAF-induced bronchospasm; 5 mg/kg, time 8 (unit not given)): 12%
O=C(c1cc[n+]([O-])cc1)N1CCC(C(O)(c2ccccn2)c2nccs2)CC1 (centres unmarked) [Formula 1.0A12]	58	98	100	–	47	–
[O-][n+]1ccc(CN2CCC(C(O)(c3ccccc3)c3cccs3)CC2)cc1 (centres unmarked) [Formula 1.0A5]	59	–	–	20	41	inhibition at 0.12 µM [1]: 35%; inhibition at 1.2 µM ([1]; concentration 1.2 μM): 81%; inhibition at 2.5 µM [1]: 91%
O=C(c1cc[n+]([O-])cc1)N1CCC(C(O)(c2ccc(Cl)cc2)c2ccccn2)CC1 (centres unmarked) [Formula 1.0A3]	88	95	92	87	69	inhibition at 0.063 µM ([1]; concentration 0.063 μM): 41%; inhibition at 0.125 µM [1]: 53%
[O-][n+]1ccc(CN2CCC(C(O)(c3ccc(Cl)cc3)c3cccs3)CC2)cc1 (centres unmarked) [Formula 1.0A9]	–	24	100	–	–	–
CC(=O)N1CCC(=C2c3ccc(Cl)cc3CCc3cccnc32)CC1 [Compound B, reference compound]	–	–	–	4	–	Histamine agonist bronchospasm % inhibition ([2]; 3 mg/kg): 48%; IC50 ([1]; in vitro, known compounds, for purposes of comparison): 0.61 µM
[O-][n+]1ccc(CN2CCC(C(O)(c3ccc(Cl)cc3)c3nccs3)CC2)cc1 (centres unmarked) [Formula 1.0A11]	7	76	83	–	–	–
O=C(c1cc[n+]([O-])cc1)N1CCC(C(O)(c2ccccn2)c2ccccn2)CC1 [Formula 1.0A1]	97	–	–	93	68	inhibition at 0.12 µM [1]: 28%
O=C(c1cc[n+]([O-])cc1)N1CCC(C(O)(c2ccc(Cl)cc2)c2nccs2)CC1 (stereo not drawn) [Formula 1.0A10, α-(4-chlorophenyl)-1-(4-pyridinylcarbonyl)-α-(2-thiazolyl)-4-piperidinemethanol N^1-oxide]	88	92	86	93	67	Histamine agonist bronchospasm % inhibition ([2]; 10 mg/kg): 12%; inhibition at 0.125 µM [1]: 52%; PAF agonist bronchospasm % inhibition (duration) (PAF-induced bronchospasm; 4 mg/kg, time 6 (unit not given)): 99%
CCOC(=O)N1CCC(=C2c3ccc(Cl)cc3CCc3cccnc32)CC1 [Compound A, reference compound]	–	–	–	–	–	Histamine agonist bronchospasm % inhibition ([2]; 1 mg/kg): > 50%; IC50 [1]: > 50 µM; PAF agonist bronchospasm % inhibition (PAF-induced bronchospasm; 10 mg/kg): < 50%
CC(=O)N1CCC(=C2c3ccc(Cl)cc3CCc3cccnc32)CC1 [Compound D, reference compound]	–	–	–	–	–	PAF agonist bronchospasm % inhibition (duration) (PAF-induced bronchospasm; 15 mg/kg, time 4 (unit not given)): 61%; PAF agonist bronchospasm % inhibition (duration) (PAF-induced bronchospasm; 15 mg/kg, time 8 (unit not given)): 32%
